# From patent publication US20230125249A1 (FIRMENICH SA, priority 2017, published 2023)
# Columns and labels:
# [1] = target: T1, OR5AN1 olfactory receptor (Homo sapiens, UniProt Q8NGI8); experiment: Allosteric EC50 shift analysis: MUSCENONE® dose response with serial concentrations of enhancer; type: cell-based
# T1 construct: expressed in transfected cells
# T1 sequence (Q8NGI8 1-311): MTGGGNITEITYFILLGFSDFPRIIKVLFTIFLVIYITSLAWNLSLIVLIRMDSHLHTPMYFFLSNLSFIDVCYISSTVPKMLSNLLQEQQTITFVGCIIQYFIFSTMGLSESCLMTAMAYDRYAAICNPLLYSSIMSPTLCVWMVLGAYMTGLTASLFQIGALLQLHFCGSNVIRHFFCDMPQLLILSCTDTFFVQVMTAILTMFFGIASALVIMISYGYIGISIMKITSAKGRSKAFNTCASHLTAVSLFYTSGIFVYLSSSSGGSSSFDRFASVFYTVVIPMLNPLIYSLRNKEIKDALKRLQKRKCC
# Procedure: (§1) The level of enhancement of the OR5AN1 olfactory receptor activation was evaluated at distinct concentrations of the enhancer. […] The curves were obtained by applying the simplified Allosteric EC50 shift effect equation (available in Prism5, v. 5.02) derived from the ternary complex interaction model.
# Olfr1440 = target: T2, Olfr1440 (Mus musculus, UniProt Q8VFV4); experiment: Control enhancement experiment on mouse ortholog receptor; type: cell-based
# T2 construct: expressed in transfected cells
# T2 sequence (Q8VFV4 1-315): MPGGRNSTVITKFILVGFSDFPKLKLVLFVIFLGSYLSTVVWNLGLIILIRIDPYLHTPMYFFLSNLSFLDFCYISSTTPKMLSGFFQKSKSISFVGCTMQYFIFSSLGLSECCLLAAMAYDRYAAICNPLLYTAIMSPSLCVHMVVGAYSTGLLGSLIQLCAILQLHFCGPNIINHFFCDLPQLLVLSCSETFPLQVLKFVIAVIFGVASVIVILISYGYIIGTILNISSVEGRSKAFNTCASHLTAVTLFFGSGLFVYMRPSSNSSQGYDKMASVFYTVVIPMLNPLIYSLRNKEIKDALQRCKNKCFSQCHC
# Procedure: as §1
# Furthermore and as a control, a similar experiment was performed on the mouse MUSCENONE® responsive odorant receptor Olfr1440, the ortholog of OR5AN1.
# OR5AN1 allele 3 = experiment: Cell based assay of hypofunctional OR5AN1 allele 3 with and without enhancer; design: species or system human; conditions: allele 3, presence vs absence of enhancer
# OR5AN1 allele 4 = experiment: Cell based assay of hypofunctional OR5AN1 allele 4 with and without enhancer; design: species or system human; conditions: allele 4, presence vs absence of enhancer
# [2] = target: T1, OR5AN1 olfactory receptor; experiment: Dose-response of individual candidate alone (intrinsic agonist activity) on OR5AN1; type: cell-based
# Procedure: 15 candidates, marked as “enhancement” in Table 2 were identified. Strikingly, 80% of these putative enhancers (12/15) belonged to the same class of chemicals: unsaturated aliphatic aldehydes. Next, two parallel dose-response experiments to confirm the true enhancement properties of the potential candidates were performed. First, a dose-response of each individual candidate was performed to determine if it was an agonist by itself. Second, a MUSCENONE® dose-response curve in the presence and absence of a 250 μM concentration of the putative modulator was assessed for EC50 shifts.
# [3] = target: T1, OR5AN1 olfactory receptor; experiment: MUSCENONE®/musk dose-response on OR5AN1 in presence and absence of putative modulator (EC50 shift, span); type: cell-based; conditions: enhancer at 250 μM, FIG. 3A
# Procedure: Next, two parallel dose-response experiments to confirm the true enhancement properties of the potential candidates were performed. First, a dose-response of each individual candidate was performed to determine if it was an agonist by itself.
# The resulting enhancement was quantified by means of EC50-fold shift (potency increase) and the efficacy span ratio (efficacy increase).
# The EC50-fold shift was obtained by dividing the EC50 of MUSCENONE® +compound by the reference EC50 MUSCENONE® alone. The span ratio was obtained by dividing the span of MUSCENONE®+compound by the reference span of MUSCENONE® alone.
smiles,measurement,setting,value
CCCCCCCCCC/C=C/C=O [tridecylenic aldehyde],α (cooperativity factor),"[1]; Allosteric EC50 shift model, enhancer 0 to 1 mM",15.7
same,Kb,[1]; read-out: KB (equilibrium dissociation constant),259 µM
same,Effect on Olfr1440 MUSCENONE®-induced activation,Olfr1440,slight inhibition
same,Activity span-ratio,OR5AN1 allele 3,2.02
same,Activity span-ratio,OR5AN1 allele 4,2.16
same,Activation of OR5AN1 by the compound by itself,[2],did not activate the OR5AN1 olfactory receptor by itself
same,Activation by compound alone relative to the MUSCENONE® activation window,[2]; above approximately 100 μM,less than 8%
same,Maximal activation level (span) of MUSCENONE®,[3],increased span
